This assay concerns the target T1, Human M4 (Homo sapiens, UniProt P08173).
T1 construct: expressed in transfected cells
T1 sequence (P08173 1-479): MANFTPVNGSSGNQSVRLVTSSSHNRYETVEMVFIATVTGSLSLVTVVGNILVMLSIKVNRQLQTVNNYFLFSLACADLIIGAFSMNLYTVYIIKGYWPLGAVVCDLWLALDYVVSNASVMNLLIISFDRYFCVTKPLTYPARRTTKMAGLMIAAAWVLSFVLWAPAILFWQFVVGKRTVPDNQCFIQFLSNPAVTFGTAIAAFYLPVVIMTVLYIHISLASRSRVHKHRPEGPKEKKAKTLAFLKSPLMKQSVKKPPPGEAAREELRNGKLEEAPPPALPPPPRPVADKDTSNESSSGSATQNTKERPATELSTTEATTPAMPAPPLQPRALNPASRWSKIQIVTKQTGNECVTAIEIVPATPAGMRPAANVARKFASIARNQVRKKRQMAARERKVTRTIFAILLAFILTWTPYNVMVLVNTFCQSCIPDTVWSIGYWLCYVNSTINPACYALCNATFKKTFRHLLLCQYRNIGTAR
Kind of assay: mAChR M4 cell-based functional assay (calcium flux, potentiation of EC20 acetylcholine response), hM4-Gqi5 CHO-K1 cells. The following applies: for Emax at 30 µM: % ACh maximum at 30 μM; for EC50: calcium flux, read-out: Human M4 EC50. The procedure, abridged: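 CHO-K1 cells stably expressing human M4 with chimeric Gqi5, loaded with Fluo-4 AM 50 min at 37 °C; calcium flux read by FDSS. 11-point 1:3 compound curves added, then EC20 acetylcholine at 144 s; potentiation of the EC20 response fitted by four-parameter logistic to give EC50 and Emax.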
On the technique in general: Calcium assays in cells follow changes in intracellular calcium, usually with a dye or a luminescent sensor.

Where [1] appears, read: CHO-K1, human M4, read-out: Emax.
[2] abbreviates: hM4-Gqi5 CHO-K1 cells, PAM of EC20 acetylcholine.
Where [3] appears, read: Table 3, potentiation of EC20 acetylcholine response, CHO-K1 cells.
The mark [4] stands for this setting: CHO-K1, Table 3, Human M4, read-out: Emax (% ACh maximum at 30 μM).

A word on the Emax: it is the size of the effect at its maximum, as opposed to the concentration needed. The EC50 is the concentration at which the effect is half-maximal.

Where two headings read alike, the source gives them in different places.

For the compound `CCn1ccc(-c2cnc3c(c2)CN(c2nn4cnnc4c(C)c2C)CC3)n1` [Compound 129, 6-(7,8-dimethyl-[1,2,4]triazolo[4,3-b]pyridazin-6-yl)-3-(1-ethylpyrazol-3-yl)-7,8-dihydro-5H-1,6-naphthyridine], the Emax at 30 µM under setting [1] came out at 99%. In addition, the concentration for a half-maximal effect (EC50) under setting [2] was found to be 0.21 µM.
Consider `CCn1ccc(-c2cnc3c(c2)CN(c2nn4cnnc4cc2C)CC3)n1` [Compound 130, 3-(1-ethylpyrazol-3-yl)-6-(7-methyl-[1,2,4]triazolo[4,3-b]pyridazin-6-yl)-7,8-dihydro-5H-1,6-naphthyridine], for which, under setting [1], the maximal response (Emax) at 30 µM came to 93%.
With `CCn1ccc(-c2cnc3c(c2)CN(c2nn4ccnc4cc2C)CC3)n1` [Compound 131, 3-(1-ethylpyrazol-3-yl)-6-(7-methylimidazo[1,2-b]pyridazin-6-yl)-7,8-dihydro-5H-1,6-naphthyridine], under setting [1], the Emax at 30 µM amounted to 81%. Also, the EC50 under setting [2] turned out to be 0.921 µM.
Taken in the same sequence, the figures for `Cc1c(N2CCc3ncc(-c4cc(-c5ccccc5)no4)cc3C2)nn2cnnc2c1C` [Compound 132, 5-[6-(7,8-dimethyl-[1,2,4]triazolo[4,3-b]pyridazin-6-yl)-7,8-dihydro-5H-1,6-naphthyridin-3-yl]-3-phenyl-isoxazole] were 81% and 1.95 µM.
Consider `Cc1cc2nncn2nc1N1CCc2ncc(-c3cc(-c4ccccc4)no3)cc2C1` [Compound 133, 5-[6-(7-methyl-[1,2,4]triazolo[4,3-b]pyridazin-6-yl)-7,8-dihydro-5H-1,6-naphthyridin-3-yl]-3-phenyl-isoxazole], for which the Emax at 30 µM under setting [1] came to 68%. The EC50 under setting [2] came to 1.34 µM.
On to `Cc1cnn(C)c1-c1cnc2c(c1)CN(c1nn3cnnc3c(C)c1C)CC2` [Compound 134, 3-(2,4-dimethylpyrazol-3-yl)-6-(7,8-dimethyl-[1,2,4]triazolo[4,3-b]pyridazin-6-yl)-7,8-dihydro-5H-1,6-naphthyridine], for which, under setting [1], the Emax at 30 µM came to 88%. In addition, under setting [2], the EC50 stood at 0.299 µM.
In the case of `Cc1cc2nncn2nc1N1CCc2ncc(-c3c(C)cnn3C)cc2C1` [Compound 135, 3-(2,4-dimethylpyrazol-3-yl)-6-(7-methyl-[1,2,4]triazolo[4,3-b]pyridazin-6-yl)-7,8-dihydro-5H-1,6-naphthyridine], the Emax at 30 µM under setting [1] was 81%. The 50% effective concentration (EC50) under setting [2] turned out to be 0.772 µM.
Taken in the same sequence, the figures for `Cc1cc2nccn2nc1N1CCc2ncc(-c3c(C)cnn3C)cc2C1` [Compound 136, 3-(2,4-dimethylpyrazol-3-yl)-6-(7-methylimidazo[1,2-b]pyridazin-6-yl)-7,8-dihydro-5H-1,6-naphthyridine] were 66% and 1.2 µM.
In the case of `Cc1c(N2CCc3ncc(-c4ccnn4C)cc3C2)nn2cnnc2c1C` [Compound 137, 6-(7,8-dimethyl-[1,2,4]triazolo[4,3-b]pyridazin-6-yl)-3-(2-methylpyrazol-3-yl)-7,8-dihydro-5H-1,6-naphthyridine], the Emax at 30 µM under setting [1] was found to be 99%. Also, under setting [2], the EC50 stood at 0.295 µM.
Consider `Cc1cc2nncn2nc1N1CCc2ncc(-c3ccnn3C)cc2C1` [Compound 138, 3-(2-methylpyrazol-3-yl)-6-(7-methyl-[1,2,4]triazolo[4,3-b]pyridazin-6-yl)-7,8-dihydro-5H-1,6-naphthyridine], for which the Emax at 30 µM under setting [1] was 105%. For the same compound, the EC50 under setting [2] was 0.574 µM.
As for `Cc1cc2nccn2nc1N1CCc2ncc(-c3ccnn3C)cc2C1` [Compound 139, 6-(7-methylimidazo[1,2-b]pyridazin-6-yl)-3-(2-methylpyrazol-3-yl)-7,8-dihydro-5H-1,6-naphthyridine], under setting [1], the Emax at 30 µM was 83%. Further, the EC50 under setting [2] came out at 0.433 µM.
For `Cc1cc2nncn2nc1N1CCc2ncc(-c3cnn(C)c3)cc2C1` [Compound 140, 3-(1-methylpyrazol-4-yl)-6-(7-methyl-[1,2,4]triazolo[4,3-b]pyridazin-6-yl)-7,8-dihydro-5H-1,6-naphthyridine], the Emax at 30 µM under setting [1] was 100%. Besides, under setting [2], the EC50 came out at 0.373 µM.
Take `Cc1cc2nccn2nc1N1CCc2ncc(-c3cnn(C)c3)cc2C1` [Compound 141, 6-(7-methylimidazo[1,2-b]pyridazin-6-yl)-3-(1-methylpyrazol-4-yl)-7,8-dihydro-5H-1,6-naphthyridine]: the Emax at 30 µM under setting [1] was determined as 91%. Under setting [2], the EC50 worked out at 0.583 µM.
Consider `Cc1c(N2CCc3ncc(-c4cnn(C5CC5)c4)cc3C2)nn2cnnc2c1C` [Compound 142, 3-(1-cyclopropylpyrazol-4-yl)-6-(7,8-dimethyl-[1,2,4]triazolo[4,3-b]pyridazin-6-yl)-7,8-dihydro-5H-1,6-naphthyridine], for which the Emax at 30 µM under setting [1] was 93%. Also, under setting [2], the EC50 amounted to 0.169 µM.
Take `Cc1cc2nncn2nc1N1CCc2ncc(-c3cnn(C4CC4)c3)cc2C1` [Compound 143, 3-(1-cyclopropylpyrazol-4-yl)-6-(7-methyl-[1,2,4]triazolo[4,3-b]pyridazin-6-yl)-7,8-dihydro-5H-1,6-naphthyridine]: the Emax at 30 µM under setting [1] came to 89%. In addition, the EC50 under setting [2] is 0.138 µM.
Regarding `Cc1cc2nccn2nc1N1CCc2ncc(-c3cnn(CC(C)C)c3)cc2C1` [Compound 144, 3-(1-isobutylpyrazol-4-yl)-6-(7-methylimidazo[1,2-b]pyridazin-6-yl)-7,8-dihydro-5H-1,6-naphthyridine], the Emax at 30 µM under setting [1] is 44%. Further, the EC50 under setting [2] was determined as 0.266 µM.
Taken in the same sequence, the figures for `Cc1cc2nccn2nc1N1CCc2ncc(-c3cnn(C4CC4)c3)cc2C1` [Compound 145, 3-(1-cyclopropylpyrazol-4-yl)-6-(7-methylimidazo[1,2-b]pyridazin-6-yl)-7,8-dihydro-5H-1,6-naphthyridine] were 74% and 0.304 µM.
In the case of `Cc1c(N2CCc3ncc(-c4cnn(CC(C)C)c4)cc3C2)nn2cnnc2c1C` [Compound 146, 6-(7,8-dimethyl-[1,2,4]triazolo[4,3-b]pyridazin-6-yl)-3-(1-isobutylpyrazol-4-yl)-7,8-dihydro-5H-1,6-naphthyridine], under setting [1], the Emax at 30 µM worked out at 107%. For the same compound, under setting [2], the EC50 was determined as 0.227 µM.
Regarding `Cc1cc2nncn2nc1N1CCc2ncc(-c3cnn(CC(C)C)c3)cc2C1` [Compound 147, 3-(1-isobutylpyrazol-4-yl)-6-(7-methyl-[1,2,4]triazolo[4,3-b]pyridazin-6-yl)-7,8-dihydro-5H-1,6-naphthyridine], the Emax at 30 µM under setting [1] was determined as 99%. Moreover, the EC50 under setting [2] came out at 0.477 µM.
Regarding `Cc1c(N2CCc3ncc(-c4cnn(C5CCNCC5)c4)cc3C2)nn2cnnc2c1C` [Compound 148, 6-(7,8-dimethyl-[1,2,4]triazolo[4,3-b]pyridazin-6-yl)-3-[1-(4-piperidyl)pyrazol-4-yl]-7,8-dihydro-5H-1,6-naphthyridine], the Emax at 30 µM under setting [1] is 106%. Further, the EC50 under setting [2] was found to be 0.296 µM.
Turning to `Cc1cc2nncn2nc1N1CCc2ncc(-c3cnn(C4CCNCC4)c3)cc2C1` [Compound 149, 6-(7-methyl-[1,2,4]triazolo[4,3-b]pyridazin-6-yl)-3-[1-(4-piperidyl)pyrazol-4-yl]-7,8-dihydro-5H-1,6-naphthyridine], under setting [1], the Emax at 30 µM amounted to 107%. Further, under setting [2], the EC50 worked out at 0.316 µM.
Consider `Cc1cc2nccn2nc1N1CCc2ncc(-c3cnn(C4CCNCC4)c3)cc2C1` [Compound 150, 6-(7-methylimidazo[1,2-b]pyridazin-6-yl)-3-[1-(4-piperidyl)pyrazol-4-yl]-7,8-dihydro-5H-1,6-naphthyridine], for which, under setting [1], the Emax at 30 µM worked out at 87%. In addition, the EC50 under setting [2] came to 0.568 µM.
Consider `Cc1cc2nncn2nc1N1CCc2ncccc2C1` [Compound 151, 6-(7-methyl-[1,2,4]triazolo[4,3-b]pyridazin-6-yl)-7,8-dihydro-5H-1,6-naphthyridine], for which the Emax (CHO-K1) was 93%.
On to `Cc1c(N2CCc3ncc(N)cc3C2)nn2cnnc2c1C` [Compound 152, 6-(7,8-dimethyl-[1,2,4]triazolo[4,3-b]pyridazin-6-yl)-5,6,7,8-tetrahydro-1,6-naphthyridin-3-amine], for which the Emax (CHO-K1, read-out: Emax (% ACh maximum at 30 μM)) was determined as 102%. Besides, under setting [3], the half-maximal effective concentration (EC50) came out at 1.28 µM.
For the compound `CC(=O)Nc1cnc2c(c1)CN(c1nn3cnnc3c(C)c1C)CC2` [Compound 153, N-(6-(7,8-dimethyl-[1,2,4]triazolo[4,3-b]pyridazin-6-yl)-5,6,7,8-tetrahydro-1,6-naphthyridin-3-yl)acetamide], the Emax at 30 µM under setting [4] was found to be 84%. Further, under setting [3], the EC50 was determined as 3.38 µM.
For the compound `Cc1c(N2CCc3ncc(NC(=O)C(C)C)cc3C2)nn2cnnc2c1C` [Compound 154, N-(6-(7,8-dimethyl-[1,2,4]triazolo[4,3-b]pyridazin-6-yl)-5,6,7,8-tetrahydro-1,6-naphthyridin-3-yl)isobutyramide], under setting [4], the Emax at 30 µM was found to be 79%. In addition, the EC50 under setting [3] was determined as 3.63 µM.
Taken in the same sequence, the figures for `COc1ccc(C(=O)Nc2cnc3c(c2)CN(c2nn4cnnc4c(C)c2C)CC3)cn1` [Compound 155, N-(6-(7,8-dimethyl-[1,2,4]triazolo[4,3-b]pyridazin-6-yl)-5,6,7,8-tetrahydro-1,6-naphthyridin-3-yl)-6-methoxynicotinamide] were 92% and 0.966 µM.

The values are drawn from patent publication US20250002507A1, “7,8-DIHYDRO-5H-1,6-NAPHTHYRIDINE DERIVATIVES AS POSITIVE ALLOSTERIC MODULATORS OF THE MUSCARINIC ACETYLCHOLINE RECEPTOR M4 FOR TREATING NEUROLOGICAL AND PSYCHIATRIC DISORDERS” (Vanderbilt University, priority 2021, published 2025).
